Source: ChEMBL document CHEMBL1201862, “PubChem BioAssay data set” (2004)
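The compound was tested at five concentrations on cells cultured in 96-well plates, with a 48-hour exposure period. At the GI50, growth is halved.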 Active and inactive are the calls of the source. Rule as the data show it: active = GI50 up to about 1.1 µM and inactive = higher.

Columns and labels:
Experiment in all cases: NCI tumour cell line growth inhibition, 48 h
NCI-H226 = test system: NCI-H226
MDA-MB-435 = test system: MDA-MB-435
HCC 2998 = test system: HCC 2998
PC-3 = test system: PC-3
TK-10 = test system: TK-10
ACHN = test system: ACHN
CAKI-1 = test system: CAKI-1
MDA-N = test system: MDA-N
A498 = test system: A498
M14 = test system: M14
MCF7 = test system: MCF7
CCRF-CEM = test system: CCRF-CEM
NCI-H460 = test system: NCI-H460
SK-OV-3 = test system: SK-OV-3
SW-620 = test system: SW-620
COLO 205 = test system: COLO 205
LXFL 529 = test system: LXFL 529
HCT-116 = test system: HCT-116
KM-20L2 = test system: KM-20L2
786-0 = test system: 786-0

Structure (SMILES)	GI50 (NCI-H226)	GI50 (MDA-MB-435)	GI50 (HCC 2998)	GI50 (PC-3)	GI50 (TK-10)	GI50 (ACHN)	GI50 (CAKI-1)	GI50 (MDA-N)	GI50 (A498)	GI50 (M14)	GI50 (MCF7)	GI50 (CCRF-CEM)	GI50 (NCI-H460)	GI50 (SK-OV-3)	GI50 (SW-620)	GI50 (COLO 205)	GI50 (LXFL 529)	GI50 (HCT-116)	GI50 (KM-20L2)	GI50 (786-0)
CN(C)CCCn1c(-c2ccc(Br)cc2)cs/c1=N\c1ccccc1	13.2 µM (inactive)	18.7 µM (inactive)	5.38 µM (inactive)	11.2 µM (inactive)	15.9 µM (inactive)	16.8 µM (inactive)	10.2 µM (inactive)	13.8 µM (inactive)	8.75 µM (inactive)	12.6 µM (inactive)	16 µM (inactive)	28.8 µM (inactive)	12.2 µM (inactive)	18.3 µM (inactive)						
CCOC(=O)c1csc(NC(=O)CN2CCCC2)n1	> 100 µM (inactive)	> 100 µM (inactive)	> 100 µM (inactive)	> 100 µM (inactive)	> 100 µM (inactive)	> 100 µM (inactive)	> 100 µM (inactive)	> 100 µM (inactive)	> 100 µM (inactive)	> 100 µM (inactive)	> 100 µM (inactive)	> 100 µM (inactive)	> 100 µM (inactive)	> 100 µM (inactive)	> 100 µM (inactive)	> 100 µM (inactive)				
Cc1nc(N(CCO)CCO)c2sc(=S)n(-c3ccccc3)c2n1	> 100 µM (inactive)		> 100 µM (inactive)		> 100 µM (inactive)	> 100 µM (inactive)			> 100 µM (inactive)			> 100 µM (inactive)	> 100 µM (inactive)	> 100 µM (inactive)	> 100 µM (inactive)	> 100 µM (inactive)	> 100 µM (inactive)	> 100 µM (inactive)		
CCOC(=O)c1csc(NC(=O)CCN2CCN(C)CC2)n1	> 100 µM (inactive)	> 100 µM (inactive)	> 100 µM (inactive)	> 100 µM (inactive)	> 100 µM (inactive)	> 100 µM (inactive)	64.1 µM (inactive)	> 100 µM (inactive)	> 100 µM (inactive)	> 100 µM (inactive)	89.3 µM (inactive)	54.8 µM (inactive)	> 100 µM (inactive)	> 100 µM (inactive)	43.2 µM (inactive)	> 100 µM (inactive)				
Cc1ccc(S(=O)(=O)NCCCSCCN)cc1	> 100 µM (inactive)	> 100 µM (inactive)	> 100 µM (inactive)	> 100 µM (inactive)	> 100 µM (inactive)	> 100 µM (inactive)		> 100 µM (inactive)	4.99 µM (inactive)	> 100 µM (inactive)	> 100 µM (inactive)	> 100 µM (inactive)	> 100 µM (inactive)	> 100 µM (inactive)	> 100 µM (inactive)	> 100 µM (inactive)		> 100 µM (inactive)		
Cc1nc2ccccc2c(=O)n1CC(=O)O	> 100 µM (inactive)		> 100 µM (inactive)				> 100 µM (inactive)		> 100 µM (inactive)		> 100 µM (inactive)	> 100 µM (inactive)	> 100 µM (inactive)	> 100 µM (inactive)	> 100 µM (inactive)	> 100 µM (inactive)		> 100 µM (inactive)	> 100 µM (inactive)	
Nc1ccc2c(c1)C1=NNC(=O)CC1C2 (stereo not drawn)	> 100 µM (inactive)		> 74.1 µM (inactive)				> 100 µM (inactive)		60.4 µM (inactive)		> 31.6 µM (inactive)	> 100 µM (inactive)	> 100 µM (inactive)	> 100 µM (inactive)	> 100 µM (inactive)	> 100 µM (inactive)		> 100 µM (inactive)	> 100 µM (inactive)	
c1ccc2c(c1)c1c(n2CCOCCCN2CCCCC2)CCCC1	16.3 µM (inactive)	18.1 µM (inactive)	18 µM (inactive)	13.1 µM (inactive)	16.4 µM (inactive)	15.1 µM (inactive)	18 µM (inactive)	21.8 µM (inactive)	25.8 µM (inactive)	27.9 µM (inactive)	16.1 µM (inactive)		13.9 µM (inactive)		19.5 µM (inactive)	20.4 µM (inactive)				
Cc1nc2c(nc1Cl)nc(Oc1ccc(Cl)cc1)c1ccccc12	27.9 µM (inactive)		> 100 µM (inactive)			39.5 µM (inactive)	> 100 µM (inactive)			85.7 µM (inactive)		> 100 µM (inactive)	62.4 µM (inactive)	> 100 µM (inactive)	50.4 µM (inactive)	> 100 µM (inactive)	51.4 µM (inactive)	41.7 µM (inactive)	> 100 µM (inactive)	18.6 µM (inactive)
N#C[C@H](c1ccccn1)c1nc2ccccc2nc1Cl	> 100 µM (inactive)	> 100 µM (inactive)	> 100 µM (inactive)	> 100 µM (inactive)		> 100 µM (inactive)	> 100 µM (inactive)	> 100 µM (inactive)	> 100 µM (inactive)	> 100 µM (inactive)	> 100 µM (inactive)	> 100 µM (inactive)	> 100 µM (inactive)	> 100 µM (inactive)	> 100 µM (inactive)	> 100 µM (inactive)		> 100 µM (inactive)		> 100 µM (inactive)
COc1ccc(NC(=S)c2ccc([N+](=O)[O-])o2)cc1	0.82 µM (active)	2.06 µM (inactive)	1.62 µM (inactive)	1.32 µM (inactive)	3.07 µM (inactive)	2.01 µM (inactive)	3.44 µM (inactive)	2.29 µM (inactive)	15.6 µM (inactive)	2.88 µM (inactive)	1.8 µM (inactive)	2.14 µM (inactive)	2.18 µM (inactive)	12.3 µM (inactive)	0.918 µM (active)	0.386 µM (active)		1.52 µM (inactive)		1.97 µM (inactive)
O=C1C2c3[nH]c4ccccc4c3C3CCSCC3C2C(=O)N1c1ccccc1 (stereo not drawn)	> 100 µM (inactive)				> 100 µM (inactive)	> 100 µM (inactive)	> 100 µM (inactive)		> 100 µM (inactive)	> 100 µM (inactive)		> 100 µM (inactive)	> 100 µM (inactive)	> 100 µM (inactive)	> 100 µM (inactive)	> 100 µM (inactive)	> 100 µM (inactive)	> 100 µM (inactive)	> 100 µM (inactive)	> 100 µM (inactive)
O=C(c1ccccc1)c1cc(Cl)ccc1NCn1nnc2ccccc21	> 100 µM (inactive)		47.8 µM (inactive)		81.1 µM (inactive)	> 100 µM (inactive)			65.2 µM (inactive)	88.7 µM (inactive)		77.4 µM (inactive)	69.5 µM (inactive)	47.8 µM (inactive)	48.2 µM (inactive)	64.6 µM (inactive)	98.9 µM (inactive)		60.4 µM (inactive)	> 100 µM (inactive)
C[N+]1(C)CN(c2ccccc2)C2(CCN(CCCC(=O)c3cccs3)CC2)C1=O	> 100 µM (inactive)	> 100 µM (inactive)	65.9 µM (inactive)	> 100 µM (inactive)	> 100 µM (inactive)	> 100 µM (inactive)	> 100 µM (inactive)	> 100 µM (inactive)	> 100 µM (inactive)	23.2 µM (inactive)	53.8 µM (inactive)	68.4 µM (inactive)	57 µM (inactive)	> 100 µM (inactive)	> 100 µM (inactive)	48 µM (inactive)		58.9 µM (inactive)		> 100 µM (inactive)
CC(C)NC(=O)OCc1nnn2c1CCC2			> 100 µM (inactive)		> 100 µM (inactive)	> 100 µM (inactive)				> 100 µM (inactive)		> 100 µM (inactive)	> 100 µM (inactive)	> 100 µM (inactive)	> 100 µM (inactive)		> 100 µM (inactive)	> 100 µM (inactive)	> 100 µM (inactive)	
O=S(O)CCCSSSCCCS(=O)O			> 100 µM (inactive)		> 100 µM (inactive)	> 100 µM (inactive)			> 100 µM (inactive)	> 100 µM (inactive)		> 100 µM (inactive)	> 100 µM (inactive)	> 100 µM (inactive)			> 100 µM (inactive)	> 100 µM (inactive)	> 100 µM (inactive)	
C=C1CC(OC)(C(OC)C(=O)N[C@H]2OCO[C@H]3C2O[C@H](C[C@@H](COC)OC)C(C)(C)C3OC)O[C@H](C)[C@@H]1C (stereo partly drawn)	1.16 µM (inactive)						0.916 µM (active)		1.03 µM (active)		1.4 µM (inactive)	0.21 µM (active)	0.746 µM (active)	1.06 µM (active)	0.859 µM (active)	0.805 µM (active)		0.624 µM (active)	0.931 µM (active)	
CC(=O)O[C@H]1CC[C@@]2(C)[C@H](CC[C@@H]3[C@@H]2CC[C@]2(C)[C@@H](c4ccc(=O)oc4)C[C@H]4O[C@]342)C1	2.28 µM (inactive)		1.33 µM (inactive)				0.397 µM (active)		0.69 µM (active)		1.27 µM (inactive)	0.392 µM (active)	0.212 µM (active)	1.83 µM (inactive)	0.665 µM (active)	3.15 µM (inactive)		0.472 µM (active)	1.38 µM (inactive)	
